The text below walks through data of patent publication US11974987B2, “Monoacylglycerol lipase modulators for use in autism spectrum disorders” (Janssen Pharmaceutica NV, priority 2021, dated 2024).

The target in assay [1] is human MGL from HeLa cells (Homo sapiens (Human), UniProt Q99685). The assay is described as follows: in vitro MGL activity assay ([glycerol-1,3-3H]-oleoyl glycerol cleavage). It is filed as biochemical. On the procedure: The assay consists of combining endogenously expressed MGL from HeLa cells with test compounds, adding [glycerol-1,3-^3H]-oleoyl glycerol, incubating for one hour, and then measuring the amount of cleaved [1,3-^3H]-glycerol that passes through an activated carbon filter. The amount of cleaved, tritiated glycerol passing through the carbon filter is proportional to the activity of the MGL enzyme in a particular well/test condition.
Chain of human MGL from HeLa cells (Q99685 whole entry): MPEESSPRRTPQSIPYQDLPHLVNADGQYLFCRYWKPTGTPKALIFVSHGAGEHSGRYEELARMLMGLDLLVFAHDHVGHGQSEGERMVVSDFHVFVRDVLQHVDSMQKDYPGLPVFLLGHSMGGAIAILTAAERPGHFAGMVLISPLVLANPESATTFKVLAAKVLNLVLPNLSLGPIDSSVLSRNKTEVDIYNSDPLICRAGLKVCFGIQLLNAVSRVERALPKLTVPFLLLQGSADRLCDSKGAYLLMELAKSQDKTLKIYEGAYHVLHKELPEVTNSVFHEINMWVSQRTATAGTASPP
Standard conditions for this assay combine 300 nM [Glycerol-1,3-^3H]-oleoyl glycerol with human MGL from HeLa cells and test compounds for one hour, after which the reaction is filtered through activated carbon and tritium is measured in the flow through. […] MGL is the predominant hydrolase in HeLa cells/cell homogenates.

The subject of a further assay is BTBR mice. The assay is described as follows: Three-chamber sociability test in BTBR mice (autism model). In kind it is in vivo, mouse. The note with it: 3 mg/kg p.o., 60 minutes before testing. The method, then:
(§1) Biological Example 3. The behavioral effects of the compound of Example 78 were evaluated using an animal model of autism in a sociability assay after administration of the compound. The sociability assay was conducted using C57BL/6J mice (commerically available from the Jackon Laboratory, Bar Harbor, ME) as control, and BTBR T^+ Itpr3^tf/mice (referred herein as “BTBR”)(commerically available from the Jackon Laboratory, Bar Harbor, ME) as an autism model.
The BTBR mice used in Biological Example 3 was derived from the inbred strain BTBR (Black and Tan BRachyury) that carried the mutations a^t (nonagouti; black and tan), Itpr3^tf (inositol 1,4,5-triphosphate receptor 3; tufted), and T (brachyury). […] (Wahlsten D, 2003 Brain Res). […] (McFarlane H G, 2008, Gen, Brain Behav; Moy S S, 2007, Behav Br Res, Scattoni M L, 2008, PLos). This strain of mice contains the Trem2S148E allele—a naturally occurring variant at position 48351151-48351152 on Chr 17 (rs108080490 and rs107649577; Ensembl GRCm38.p6). This TC to GA transition results in a serine to glutamic acid substitution at amino acid 148 (S148E).
(§2) Thirty (30) C57BL/6J female mice and thirty (30) BTBR female mice (7-8 weeks old) were used in Biological Example 3. Upon arrival, mice were group-housed (4-5/cage) and acclimated for at least 5 days prior to commencing studies. Animals were maintained on a 12 hr light/dark cycle with room temperature maintained at 22±2° C. and approximately 50% humidity and had access to food and water ad libitum until the day before the experiment.
(§3) The two solutions listed in Table 4 were formulated fresh daily for p.o. administration. Both solutions comprise 20% 2-Hydroxypropyl-β-cyclodextrin (HP-3-CD). The solution containing Example 78 is in a concentration of 0.3 mg/mL.
(§4) Each type of mice is divided into two different treatment groups: those orally administered a Vehicle solution, and those orally administered with a solution of Example 78, both prepared according to Table 4 above. The mice were randomly assigned to treatment groups according to Table 5 below. Mice were administered the test article 60 minutes prior to testing.
(§5) Experiments were carried out in a gray plastic arena with two clear dividers creating three chambers (each 19 cm×45 cm). […] Two wire cup-like containers were placed in the corner of either end of the arena (right chamber and left chamber). These containers were used to house either stimulus or familiar mice. The arena was placed in a room with dim lighting (˜10 lux). Animals were brought into the room to acclimate for at least 1 hour prior to beginning experiment.
Initially, empty wire cups are placed into the right and left chambers. Each of the C57BL/6J or BTBR mouse was placed into the center chamber and allowed to habituate for 10 minutes to the arena. After the 10-minute habituation and with the animal still in the arena, a first stimulus mouse, which was subsequently considered a familiar mouse, was placed inside one of the wire cups in either the right or left chamber. In the other wire cup, a small object was placed. The placement of the stimulus mouse and small object switched sides across subjects. The C57BL/6J or BTBR mouse was allowed 10 minutes to explore all three chambers. A second stimulus mouse was subsequently placed in the wire cup in the opposite chamber. The first stimulus mouse was considered as familiar mouse. Again, the C57BL/6J or BTBR mouse was allowed 10 minutes to explore all three chambers.
During the latter 10-minute period, activity of each mouse was recorded and analyzed using the Noldus EthoVision™ software, which is a video tracking software that tracks and analyzes the behavior, movement. The following data were record and scored using activity of each mouse for:
(1) Duration and number of direct/active contacts between the test mouse and both wire cups (stimulus vs. familiar); Active contact was defined as mouse stretching towards wire cup within a 3-5 mm area around the cup; and […]

For a further assay, the system named is C57BL/6J mice. The assay is described as follows: Three-chamber sociability test in C57BL/6J mice (control). In kind it is in vivo, mouse. The conditions noted are these: C57BL/6 mice, 3 mg/kg p.o., 60 minutes before testing. On the procedure:
as §1, §2, §3, §4, §5
Initially, empty wire cups are placed into the right and left chambers. Each of the C57BL/6J or BTBR mouse was placed into the center chamber and allowed to habituate for 10 minutes to the arena. After the 10-minute habituation and with the animal still in the arena, a first stimulus mouse, which was subsequently considered a familiar mouse, was placed inside one of the wire cups in either the right or left chamber. In the other wire cup, a small object was placed. […]
During the latter 10-minute period, activity of each mouse was recorded and analyzed using the Noldus EthoVision™ software, which is a video tracking software that tracks and analyzes the behavior, movement. The following data were record and scored using activity of each mouse for: […]
Data were plotted and analyzed using GraphPad Prism (version 9.1.1) software. […]

[2] abbreviates: 300 nM [Glycerol-1,3-3H]-oleoyl glycerol, one hour, read-out: MGL IC50.

Where two headings read alike, the source gives them in different places.

In the case of `O=C1CC[C@]2(C[C@H](C(=O)N3CCC4(c5cccc(OC(F)(F)F)c5)CC4C3)C2)N1` (mixture of isomers) [Example 52, (rac)-(2r,4s)-2-(6-(3-(Trifluoromethoxy)phenyl)-3-azabicyclo[4.1.0]heptane-3-carbonyl)-5-azaspiro[3.4]octan-6-one], 4.8 nM corresponded to half-maximal inhibition in assay [1] (IC50).
In the case of `O=C1CC[C@]2(C[C@H](C(=O)N3CCC4(c5ccc(OC(F)(F)F)cc5)CC4C3)C2)N1` (mixture of isomers) [Example 55, (rac)-(2r,4s)-2-(6-(4-(Trifluoromethoxy)phenyl)-3-azabicyclo[4.1.0]heptane-3-carbonyl)-5-azaspiro[3.4]octan-6-one], the IC50 in assay [1] (setting [2]) turned out to be 10 nM.
Still for that read-out and setting: as for `O=C1CC[C@]2(C[C@H](C(=O)N3CCC4(c5ccc(C(F)(F)F)cc5)CC4C3)C2)N1` (mixture of isomers) [Example 59, (rac)-(2r,4s)-2-(6-(4-(Trifluoromethyl)phenyl)-3-azabicyclo[4.1.0]heptane-3-carbonyl)-5-azaspiro[3.4]octan-6-one], the figure is 18 nM; as for `Cc1cccc([C@]23CCN(C(=O)[C@H]4C[C@]5(COC(=O)N5)C4)C[C@H]2C3)c1` (relative stereo) [Example 44, (2s,4*R)-2-((1*S,6*R)-6-(m-Tolyl)-3-azabicyclo[4.1.0]heptane-3-carbonyl)-7-oxa-5-azaspiro[3.4]octan-6-one], 2.8 nM; as for `O=C1CC[C@]2(C[C@H](C(=O)N3CC[C@@]4(c5cccc(OC(F)(F)F)c5)C[C@H]4C3)C2)N1` (stereo in doubt) [Example 119, (2r,4*S)-2-((1*R,6*S)-6-(3-(Trifluoromethoxy)phenyl)-3-azabicyclo[4.1.0]heptane-3-carbonyl)-5-azaspiro[3.4]octan-6-one], 5.2 nM.
On the same count and under the same terms, then `O=C1CC[C@]2(C[C@H](C(=O)N3CC[C@]4(c5cccc(OC(F)(F)F)c5)C[C@@H]4C3)C2)N1` (stereo in doubt) [Example 120, (2r,4*R)-2-((1*S,6*R)-6-(3-(Trifluoromethoxy)phenyl)-3-azabicyclo[4.1.0]heptane-3-carbonyl)-5-azaspiro[3.4]octan-6-one], with 23 nM; and `O=C1CC[C@]2(C[C@H](C(=O)N3CC[C@@]4(c5ccc(OC(F)(F)F)cc5)C[C@H]4C3)C2)N1` (stereo in doubt) [Example 121, (2r,4*S)-2-((1*R,6*S)-6-(4-(Trifluoromethoxy)phenyl)-3-azabicyclo[4.1.0]heptane-3-carbonyl)-5-azaspiro[3.4]octan-6-one], with 42 nM.
Still for that read-out and setting: as for `O=C1CC[C@]2(C[C@H](C(=O)N3CC[C@]4(c5ccc(OC(F)(F)F)cc5)C[C@@H]4C3)C2)N1` (stereo in doubt) [Example 122, (2r,4*R)-2-((1*S,6*R)-6-(4-(Trifluoromethoxy)phenyl)-3-azabicyclo[4.1.0]heptane-3-carbonyl)-5-azaspiro[3.4]octan-6-one], the figure is 12 nM.
`CC(C)(C)c1cccc([C@H]2[C@@H]3CN(C(=O)[C@H]4C[C@]5(COC(=O)N5)C4)C[C@@H]32)c1` [Example 78, (2s,4S)-2-((1R,5S,6S)-6-(3-(tert-Butyl)phenyl)-3-azabicyclo[3.1.0]hexane-3-carbonyl)-7-oxa-5-azaspiro[3.4]octan-6-one]: in the assay with BTBR mice, the “Mean Diff., amount of time spent exploring familiar mouse chamber and stimulus mouse chamber (Bonferroni's multiple comparisons test)” value is −40.36; the “Mean Diff., amount of time spent interacting with familiar mouse or stimulus mouse (Bonferroni's multiple comparisons test)” value is −5.578; the “Mean Diff., number of entries into familiar mouse chamber and stimulus mouse chamber (Bonferroni's multiple comparisons test)” value is reported as 4.133; the “Mean Diff., number of interactions with familiar mouse or stimulus mouse (Bonferroni's multiple comparisons test)” value is −47.07. Further, in the assay with BTBR mice, the “preference to familiar mouse over stimulus mouse (FIGS. 1C and 1D)” value is “did not show preference to familiar mouse over stimulus mouse”; the “social interaction (interest in social novelty) as compared to BTBR mice treated with placebo” value was “improved social interaction”. In addition, in the assay with C57BL/6J mice, the “Mean Diff., amount of time spent exploring familiar mouse chamber and stimulus mouse chamber (Bonferroni's multiple comparisons test)” value is given as −23.01; the “Mean Diff., amount of time spent interacting with familiar mouse or stimulus mouse (Bonferroni's multiple comparisons test)” value is reported as 2.873; the “Mean Diff., number of entries into familiar mouse chamber and stimulus mouse chamber (Bonferroni's multiple comparisons test)” value came to 8.133; the “Mean Diff., number of interactions with familiar mouse or stimulus mouse (Bonferroni's multiple comparisons test)” value is given as 37.87.
On to `CC(C)c1cccc([C@H]2[C@@H]3CN(C(=O)[C@H]4C[C@]5(COC(=O)N5)C4)C[C@@H]32)c1` [Example 84, (2s,4S)-2-((1R,5S,6S)-6-(3-Isopropylphenyl)-3-azabicyclo[3.1.0]hexane-3-carbonyl)-7-oxa-5-azaspiro[3.4]octan-6-one], for which the 50% inhibitory concentration (IC50) in assay [1] (setting [2]) was found to be 5.5 nM.

For orientation: IC50 means the point on the concentration scale where inhibition reaches its midpoint.
